Twelve compounds from publication PMC8300687, “A Fine-Tuned Lipophilicity/Hydrophilicity Ratio Governs Antibacterial Potency and Selectivity of Bifurcated Halogen Bond-Forming NBTIs” (Antibiotics, 2021) can be followed below.

Broadly, the IC50 is the concentration needed to halve the response being measured.

Bounds are passed on as bounds.

Assay [1] concerns the target T1, hERG potassium ion channel (Homo sapiens, UniProt Q12809).
T1 construct: purchased Invitrogen (assay run at TCG Lifesciences Pvt. Ltd.)
The assay can be described thus: FP-based hERG binding assay (Invitrogen kit). As to the method: Cardiovascular safety profile was entirely outsourced. hERG screening was performed at TCG Lifesciences Pvt. Ltd., Kolkata, West Bengal, India with FP-based hERG binding assay (Invitrogen kit).
On the technique in general: hERG is a cardiac potassium channel; its block is linked to QT prolongation.

Assay [2] relates to HepG2. The assay can be described thus: Metabolic activity assessment (cytotoxicity), HepG2. The class given is cell-based. The note with it: Homo sapiens. Here is the method:
Cells of the HepG2 line (ATCC® HB-8065™) and HUVEC (ATCC® CRL-1730™) were cultured in Dulbecco’s Modified Eagle Medium (DMEM; Sigma-Aldrich, St. Louis, MO, USA) supplemented with 10% heat-deactivated FBS (Gibco, Grand Island, NE, USA), 2 mM L-glutamine, 100 U/mL penicillin, 100 μg/mL streptomycin (all from Sigma-Aldrich, St. Louis, MO, USA) in a humidified chamber at 37 °C and 5% CO2. The experiments were carried out on passages 7–9 for both cell lines. The tested compounds were dissolved in DMSO and further diluted in culture medium to a desired final concentration. Cells were seeded into 96-well plates at 8 × 10^4 cells/mL (100 μL/well) and incubated for 24 h to attach onto the wells. Cells were treated with 1 μM and 50 μM of each compound of interest or corresponding vehicle as control. […] The metabolic activity was assessed after 72 h treatment using the CellTiter 96 Aqueous One Solution Cell Proliferation Assay (Promega, Madison, WI, USA), in accordance with the manufacturer’s instructions. The absorbance was measured at 492 nm on an automated microplate reader BioTek Synergy HT (BioTek Instruments, Inc., Winooski, VT, USA). Data are presented as the percentage of metabolic activity of control cells stimulated with vehicle or as IC50 value (mean ± SD) from two independent experiments, each conducted in duplicate or triplicate. IC50 values were calculated by a non-linear regression model using Graph Pad Prism 7 software.

In assay [3] the target is T2, S. aureus DNA gyrase (Staphylococcus aureus, UniProt P20831).
T2 construct: purchased Inspiralis (Norwich, UK)
T2 sequence (P20831 whole entry): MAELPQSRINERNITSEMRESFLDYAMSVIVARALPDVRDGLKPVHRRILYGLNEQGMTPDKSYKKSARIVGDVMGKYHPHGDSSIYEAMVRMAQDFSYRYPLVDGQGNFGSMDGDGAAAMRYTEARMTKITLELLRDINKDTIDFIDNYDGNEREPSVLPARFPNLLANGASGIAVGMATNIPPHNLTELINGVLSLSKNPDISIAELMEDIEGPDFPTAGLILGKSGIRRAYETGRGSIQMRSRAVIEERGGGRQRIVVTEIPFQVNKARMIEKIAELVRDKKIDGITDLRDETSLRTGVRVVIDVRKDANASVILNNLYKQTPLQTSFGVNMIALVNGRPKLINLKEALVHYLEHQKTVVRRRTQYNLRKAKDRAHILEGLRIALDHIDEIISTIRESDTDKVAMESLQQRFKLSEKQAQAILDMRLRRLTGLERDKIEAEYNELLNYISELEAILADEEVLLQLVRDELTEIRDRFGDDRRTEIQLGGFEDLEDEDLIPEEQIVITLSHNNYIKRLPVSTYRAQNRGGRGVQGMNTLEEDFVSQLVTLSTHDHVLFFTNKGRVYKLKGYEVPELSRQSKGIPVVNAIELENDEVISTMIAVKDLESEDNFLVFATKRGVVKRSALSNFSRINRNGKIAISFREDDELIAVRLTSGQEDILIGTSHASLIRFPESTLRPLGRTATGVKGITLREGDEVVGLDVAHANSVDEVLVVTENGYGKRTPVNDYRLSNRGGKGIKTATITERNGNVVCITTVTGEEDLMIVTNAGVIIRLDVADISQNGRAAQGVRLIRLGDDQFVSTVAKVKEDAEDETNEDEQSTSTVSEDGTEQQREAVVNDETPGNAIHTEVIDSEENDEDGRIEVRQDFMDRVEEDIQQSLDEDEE
T2 sequence (P0A0K8 whole entry partner): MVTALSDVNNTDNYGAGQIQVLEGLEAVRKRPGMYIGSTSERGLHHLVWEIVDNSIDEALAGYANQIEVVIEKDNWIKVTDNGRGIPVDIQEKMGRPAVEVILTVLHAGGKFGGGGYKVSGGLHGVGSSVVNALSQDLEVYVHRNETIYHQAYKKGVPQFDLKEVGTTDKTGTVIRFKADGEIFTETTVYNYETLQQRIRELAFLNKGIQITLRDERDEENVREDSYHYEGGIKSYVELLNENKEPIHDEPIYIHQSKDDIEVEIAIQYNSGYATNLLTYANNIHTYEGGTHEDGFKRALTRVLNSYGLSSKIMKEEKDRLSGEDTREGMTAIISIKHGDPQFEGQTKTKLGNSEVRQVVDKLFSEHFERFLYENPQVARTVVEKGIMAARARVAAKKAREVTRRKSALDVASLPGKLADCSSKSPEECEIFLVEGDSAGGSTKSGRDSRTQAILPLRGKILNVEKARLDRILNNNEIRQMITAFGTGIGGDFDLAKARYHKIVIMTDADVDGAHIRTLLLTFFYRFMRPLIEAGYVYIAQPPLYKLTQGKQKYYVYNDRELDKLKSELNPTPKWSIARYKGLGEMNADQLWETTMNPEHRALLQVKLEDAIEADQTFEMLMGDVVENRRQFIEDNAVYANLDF
The assay can be described thus: gel-based S. aureus Gyrase Supercoiling assay (Inspiralis). The note with it: gel-based assays by Inspiralis, as detailed in [13]. The assay is classed as biochemical. From the text: […]. […] IC50 value represents the mean of two to four independent measurements.

Setting [4] is: HepG2, 72 h, metabolic activity after 72 h treatment.
Where [5] appears, read: HepG2, metabolic activity after 72 h treatment.

T1 sequence (Q12809 whole entry): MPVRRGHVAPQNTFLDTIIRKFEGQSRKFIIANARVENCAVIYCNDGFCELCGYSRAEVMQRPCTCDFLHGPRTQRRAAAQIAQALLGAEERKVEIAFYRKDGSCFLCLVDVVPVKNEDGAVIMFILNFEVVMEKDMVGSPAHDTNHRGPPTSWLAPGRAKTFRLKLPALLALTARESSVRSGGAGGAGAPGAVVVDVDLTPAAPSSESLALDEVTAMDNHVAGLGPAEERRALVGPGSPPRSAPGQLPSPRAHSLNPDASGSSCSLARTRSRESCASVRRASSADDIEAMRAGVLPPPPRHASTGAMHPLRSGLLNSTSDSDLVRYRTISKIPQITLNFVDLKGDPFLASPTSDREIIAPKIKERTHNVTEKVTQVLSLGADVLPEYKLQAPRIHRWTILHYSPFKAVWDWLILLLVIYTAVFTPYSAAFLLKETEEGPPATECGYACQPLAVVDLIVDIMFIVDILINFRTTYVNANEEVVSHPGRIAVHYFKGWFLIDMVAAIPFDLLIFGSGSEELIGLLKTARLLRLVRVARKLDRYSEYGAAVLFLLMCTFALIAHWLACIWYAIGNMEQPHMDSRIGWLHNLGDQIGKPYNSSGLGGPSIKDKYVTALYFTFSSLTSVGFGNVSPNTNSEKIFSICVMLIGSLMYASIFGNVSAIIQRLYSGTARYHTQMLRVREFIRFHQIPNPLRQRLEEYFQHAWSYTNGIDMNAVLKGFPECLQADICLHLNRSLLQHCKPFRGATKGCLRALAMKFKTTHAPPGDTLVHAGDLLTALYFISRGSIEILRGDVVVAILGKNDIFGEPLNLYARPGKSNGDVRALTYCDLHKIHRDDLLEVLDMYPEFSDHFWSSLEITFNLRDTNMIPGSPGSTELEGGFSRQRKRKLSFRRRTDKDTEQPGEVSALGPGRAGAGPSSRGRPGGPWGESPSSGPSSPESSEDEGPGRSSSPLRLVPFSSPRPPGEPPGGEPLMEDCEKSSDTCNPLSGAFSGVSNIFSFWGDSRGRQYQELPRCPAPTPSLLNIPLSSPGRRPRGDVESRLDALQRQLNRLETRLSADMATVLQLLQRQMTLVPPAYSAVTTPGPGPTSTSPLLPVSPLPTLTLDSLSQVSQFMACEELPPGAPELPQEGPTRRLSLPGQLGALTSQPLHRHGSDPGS

For `COc1ccc2nccc(CCN3CCC(NCc4ccc(OC(F)F)c(O)c4)CC3)c2n1` [Compound 20, 2-(Difluoromethoxy)-5-((1-(2-(6-methoxy-1,5-naphthyridin-4-yl)ethyl)piperidin-4-ylamino)methyl)phenol], the half-maximal inhibitory concentration (IC50) in assay [1] came out at 0.18 µM; in assay [2] (setting [4]), 10.9 ± 0.12 µM.
With `COc1ccc2nccc(CCN3CCC(NCc4cnn(-c5ccccc5)c4)CC3)c2n1` [Compound 5, 1-(2-(6-Methoxy-1,5-naphthyridin-4-yl)ethyl)-N-((1-phenyl-1H-pyrazol-4-yl)methyl)piperidin-4-amine], the results for the IC50 in assay [1] and in assay [2] (setting [5]) were 0.62 µM and 6.33 ± 0.19 µM, respectively.
Taken in the same sequence, the figures for `COc1ccc2nccc(CCN3CCC(NCc4cnn(-c5ccccc5)n4)CC3)c2n1` [Compound 8, 1-(2-(6-Methoxy-1,5-naphthyridin-4-yl)ethyl)-N-((2-phenyl-2H-1,2,3-triazol-4-yl)methyl)piperidin-4-amine] were 0.37 µM and 17.1 ± 0.98 µM.
Turning to `COc1ccc(CNC2CCN(CCc3ccnc4ccc(OC)nc34)CC2)cn1` [Compound 22, 1-(2-(6-Methoxy-1,5-naphthyridin-4-yl)ethyl)-N-((6-methoxypyridin-3-yl)methyl)piperidin-4-amine], the IC50 stood at 3.05 µM in assay [1] and 32.03 ± 0.3 µM in assay [2] (setting [5]).
Consider `COc1ccc2nccc(CCN3CCC(NCc4cnn(-c5ccc(F)cc5)c4)CC3)c2n1` [Compound 4, N-((1-(4-Fluorophenyl)-1H-pyrazol-4-yl)methyl)-1-(2-(6-methoxy-1,5-naphthyridin-4-yl)ethyl)piperidin-4-amine], for which the IC50 in assay [1] amounted to 0.33 µM; in assay [2] (setting [5]) it was 4.64 ± 0.1 µM.
For the compound `COc1ccc2nccc(CCN3CCC(NCc4ccc(OC(F)F)c(OC)c4)CC3)c2n1` [Compound 19, N-(4-(Difluoromethoxy)-3-methoxybenzyl)-1-(2-(6-methoxy-1,5-naphthyridin-4-yl)ethyl)piperidin-4-amine], the IC50 is 0.46 µM in assay [1] and 6.31 ± 0.09 µM in assay [2] (setting [4]).
`COc1ccc2nccc(CCN3CCC(NCc4cnn(C(C)C)c4)CC3)c2n1` [Compound 9, N-((1-Isopropyl-1H-pyrazol-4-yl)methyl)-1-(2-(6-methoxy-1,5-naphthyridin-4-yl)ethyl)piperidin-4-amine]: the figures for the IC50 in assay [1] and in assay [2] (setting [5]) were 9.82 µM and greater than 50 µM, respectively.
The compound `COc1ccc2nccc(CCN3CCC(NCc4ccc(CO)cc4)CC3)c2n1` [Compound 16] displayed an IC50 in assay [1] of 3.24 µM.
Turning to `COc1ccc2nccc(CCN3CCC(NCc4ccc(C(F)(F)F)nc4)CC3)c2n1` [Compound 21, 1-(2-(6-Methoxy-1,5-naphthyridin-4-yl)ethyl)-N-((6-(trifluoromethyl)pyridin-3-yl)methyl)piperidin-4-amine], the IC50 in assay [1] is 1.97 µM; in assay [2] (setting [5]), greater than 50 µM.
`COc1ccc2nccc(CCN3CCC(NCc4ccc(I)cc4)CC3)c2n1` [Compound 15]: the IC50 in assay [2] (setting [4]) was roughly 10 µM; in assay [3], 0.011 ± 0.003 µM.
With `COc1ccc2nccc(CCN3CCC(NCc4nc5ccccc5n4C)CC3)c2n1` [Compound 3, 1-(2-(6-Methoxy-1,5-naphthyridin-4-yl)ethyl)-N-((1-methyl-1H-benzo[d]imidazol-2-yl)methyl)piperidin-4-amine], the IC50 in assay [1] was determined as 1.04 µM.
As to `C=CCn1cc(CNC2CCN(CCc3ccnc4ccc(OC)nc34)CC2)cn1` [Compound 10, N-((1-Allyl-1H-pyrazol-4-yl)methyl)-1-(2-(6-methoxy-1,5-naphthyridin-4-yl)ethyl)piperidin-4-amine], the half-inhibitory concentration (IC50) in assay [1] was 6.62 µM; in assay [2] (setting [5]) it was greater than 50 µM.
